Test results taken from PubChem BioAssay (NCI).
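48-hour exposure; five concentrations; linearly interpolated endpoints. GI50 = concentration required for 50% inhibition of growth. At the TGI there is no net growth.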

Legend:
Assay in all cases: growth of human tumour cells (NCI), 48 h
[1] = tested on: SK-OV-3 ovarian
[2] = tested on: SK-MEL-28 melanoma
[3] = tested on: COLO 205 colon
[4] = tested on: KM12 colon
[5] = tested on: HT29 colon
[6] = tested on: TK-10 renal
[7] = tested on: SR leukemia
[8] = tested on: HL-60(TB) leukemia
[9] = tested on: HCT-116 colon
[10] = tested on: BT-549 breast

SMILES	GI50 [1] [µM]	TGI [1] [µM]	GI50 [2] [µM]	TGI [2] [µM]	GI50 [3] [µM]	TGI [3] [µM]	GI50 [4] [µM]	TGI [4] [µM]	GI50 [5] [µM]	TGI [5] [µM]	GI50 [6] [µM]	TGI [6] [µM]	GI50 [7] [µM]	TGI [7] [µM]	GI50 [8] [µM]	TGI [8] [µM]	GI50 [9] [µM]	TGI [9] [µM]	GI50 [10] [µM]	TGI [10] [µM]
CCCCCCCCn1ccc2cc(NC(=O)Cn3cc(CN4CCCCC4)nn3)ccc21	1.89	3.97	1.75	3.29	1.84	3.68	2.23	5	2.02	4.28	2.44	6.63	1.67	> 100	1.98	4.15	1.7	3.19	10.2	23.2
Cc1ccc(Cl)c(Nc2ccccc2C(=O)O)c1Cl	26	65	30.5	89	22.2	43	29.3	77.1	35.6	> 100	29.2	86	25.4	78.1	22.7	51.4	19.6	44.9	21.7	60.1
O=c1ssc(Cl)c1Cl	–	> 10	–	> 10	–	4.32	–	> 10	–	> 10	–	> 10	–	> 10	–	6.04	–	> 10	–	> 10
O=C1c2ccccc2-c2c1c1ccccc1c(=O)n2CCCNCCCCNCCCN1C(=O)c2ccccc2C2C(=O)c3ccccc3C21 (stereo not given)	1.02	2.81	1.19	6.76	0.681	1.61	0.27	1.41	0.0766	8.75	0.614	1.45	< 0.005	0.00559	0.203	1.17	0.0231	0.421	0.854	2.04
O=C(O)c1ccc(C(=O)O)c(C(=O)Nc2ccc3c(c2)C(=O)c2ccccc2-3)c1	–	> 100	–	> 100	–	> 100	–	> 100	–	> 100	–	> 100	–	> 100	–	> 100	–	> 100	–	> 100
Cn1c(=O)c(Oc2ccc(F)cc2F)cc2cnc(NC3CCS(=O)(=O)CC3)nc21	> 20	> 25	> 25	> 25	> 25	> 25	> 25	> 25	> 25	> 25	> 25	> 25	> 25	> 25	> 25	> 25	> 25	> 25	> 25	> 25
COc1ccc(C2C=C(c3ccc4c(c3)OCO4)Oc3c2c(=O)oc2ccccc32)cc1OC (stereo not given)	–	> 69.6	–	> 100	–	> 100	–	> 100	–	> 85.5	–	> 78.1	–	0.594	–	0.6	–	> 100	–	> 100
CCCCCCCCCCCCCCCCC(=O)O.CCCCCCCCCCCCCCCCCC(=O)O.CCCCCCCCCCCCCCCCCC(=O)O.CCCCCCCCCCCCCCCCCC(=O)O.CCCCCCCCCCCCCCCCCC(=O)O.CO[CH-]OC12COC1CC(O)C1(C)C(O)C(OC(C)O)C3=C(C)C(OC(=O)C(O)C([NH-])c4ccccc4)CC(O)(C(OC(=O)c4ccccc4)C21)C3(C)C.[Cu+].[Zn].[Zn].[Zn].[Zn].[Zn] (stereo not given)	0.0203	5.3	4.68	23.7	0.00844	> 25	0.00656	> 25	< 0.0025	> 25	0.258	> 25	0.00414	11.5	0.00466	> 25	0.00309	> 25	0.00947	3.95
CN1C/C=C/CCOc2cccc(c2)-c2ccnc(n2)Nc2cccc(c2)C1	0.174	3.82	0.0349	0.188	0.0204	0.0442	0.0333	0.176	0.0376	0.416	0.048	0.506	0.0201	–	0.0259	0.0941	0.0277	1.08	0.0398	0.21
CC(=O)OC12COC1CC(O)C1(C)C(=O)C(O)C3=C(C)C(O)CC(O)(C(OC(=O)c4ccccc4)C21)C3(C)C (stereo not given)	–	> 100	–	> 100	–	5.29	1.22	> 100	–	> 44.8	–	> 100	–	> 100	–	24.3	–	> 73.6	–	> 100
COc1cc(-c2c(C#N)c(N)nc(N3CCOCC3)c2C#N)cc(OC)c1OC	81.1	> 100	> 100	> 100	5.39	> 100	> 100	> 100	> 100	> 100	> 100	> 100	13.4	40.2	> 100	> 100	86.5	> 100	> 100	> 100
CS(=O)(=O)CC(=O)c1ccccc1	–	> 100	–	> 100	–	> 100	–	> 100	–	> 100	–	> 100	–	> 100	–	> 100	–	> 100	–	> 100
CC(C)(C)CC(N)=O	–	> 100	–	> 100	–	> 100	–	> 100	–	> 100	–	> 100	–	> 100	–	> 100	–	> 100	–	> 100
CC(=O)N1N=C2/C(=C/c3ccc(Cl)cc3)CC(C)CC2C1c1ccc(Cl)cc1 (stereo not given)	20.4	59.6	23.7	53.8	11.8	24.5	21.4	67.1	21.7	91.5	37.2	> 100	14.6	53.8	13.5	59.5	12.6	25.2	17	34.2
CCCCCCCCC(=O)OCC(CS[As](C)C)OC(=O)CCCCCCCC (stereo not given)	16.5	> 67.6	1.12	16.2	0.557	24.8	2.77	13.8	1.51	17.3	0.364	3.14	1.03	5.41	0.285	1.78	0.373	11.3	4.78	19.1
CCN1Cc2nc3sc(C)c(C)c3c(=O)n2C=C1C	74.1	> 100	6.65	21.3	24.4	> 100	2.8	14.4	3.9	15.8	15.1	83.4	1.58	8.49	2.1	6.48	1.72	4.17	7.36	92.1
NC(N)=N/N=C/c1ccc(-c2ccc(-c3cc(Cl)cc(Cl)c3)s2)cc1	2	4.08	1.8	3.51	1.49	3.88	1.87	3.56	1.91	4.81	1.71	3.54	0.326	1.73	1.68	3.59	1.31	2.99	2.37	7.02
O=C1OCC2=C1C(c1ccc(Cl)c(Cl)c1)c1cc3c(cc1N2CCO)CCC3 (stereo not given)	0.211	6	0.323	11.7	0.175	0.702	0.181	6.57	0.164	0.646	0.312	13.2	0.348	16.2	0.172	1.54	0.234	6.59	1.35	10.9
COc1ccc(/C=C2\C=C(c3ccccc3)N(CCc3ccccc3)C2=O)cc1OC	4.04	18.8	6.76	68.1	17.3	> 100	22.2	> 100	8.92	48.9	2.28	4.91	11.1	57.7	11.7	68.6	3.09	11.6	12.4	49.9
Cc1cc(N(CCCl)CCCl)ccc1C=Nc1ccc2ccccc2c1	19.3	> 100	> 100	> 100	13.2	> 82.6	66.8	> 100	> 85.3	> 100	24.5	> 100	4.08	> 100	8.6	> 68.6	38	> 100	19.8	> 100
Clc1ccc(-c2cc(-c3ccccc3)nc(NCCNc3ccnc4cc(Cl)ccc34)n2)cc1	1.71	3.29	1.7	3.19	1.68	3.66	1.81	3.46	1.67	3.26	1.8	3.42	1.59	4.56	1.85	3.76	1.65	3.41	1.68	3.25
O=C1c2cc([N+](=O)[O-])ccc2-c2ccc3c4ccc5c6c(ccc(c7ccc1c2c73)c64)C(=O)c1cc([N+](=O)[O-])ccc1-5	–	> 100	–	> 100	–	> 100	–	> 100	–	> 100	–	> 100	–	> 100	–	> 100	–	> 100	–	> 100
COc1cc(C(=O)Nc2cc(OC)c3ccn(C)c3c2)cc2c1C[C@]1(C)CC[C@@H](O)C(C)(C)[C@H]1O2	0.58	5.11	1.77	37.1	1.4	6.41	2.08	> 100	1.68	13.8	3.74	43.8	0.0837	> 100	0.074	3.43	0.733	17	0.558	30.3
Clc1ccc(OCc2nnc3n2N=C(c2ccc(Cl)cc2Cl)CS3)cc1	42.8	> 100	20.6	44.6	26.3	86.7	20.9	54.4	16	51.8	15.9	> 100	19.4	52.9	31.8	> 100	13.2	30.4	22.8	46.2
O=C(c1ccco1)c1c(C(F)(F)F)n([O-])c2ccc(Cl)cc2[n+]1=O	2.09	5.63	2.04	5.71	1.39	12.8	1.93	4.13	0.359	> 100	0.363	1.02	0.204	0.574	0.346	6.33	0.0595	2.84	0.109	0.73
Cn1cc(C2=C(c3cn(C)c4ccccc34)C(=O)NC2=O)c2ccccc21	1.51	> 25	3.71	> 25	1.1	> 25	0.948	> 25	0.775	> 25	8.75	> 25	0.248	> 25	0.747	5.1	1.17	> 25	2.33	> 25
